Laboratory results taken from US9592211B2, “Compositions for improvement of brain function” (GRESPO AB, priority 2012, dated 2017).
“Also recorded” adds a separate entry of the source.

Key:
Mongolian gerbils = experiment: T-maze spontaneous alternation, cognitive function/memory, Example 2; format: in vivo; conditions: old gerbils, feeding in chow, tested once (FIG. 2)
From the text: During the course of the treatment, the animals were subjected to T-maze test measuring cognitive function and/or memory as specified under Materials and Methods.
For long-lasting feeding (during 6 month) 75 old male Mongolian gerbils, randomly selected, were used. Those selected were approximately 1.5 years of age at start of the experiment with the mean body weight of 88.0±6 g and 2 years of age at experiment finish.
Subjects were first placed in the start arm of the T Maze. Upon leaving the start arm, subjects chose between entering either the left or the right goal arm. […] The percentage of alternation (number of turns in each goal arm) and total trial duration were recorded.

[1] = test system: synaptic terminals in hippocampal CA1 zone; experiment: Synaptic morphology alterations (electron microscopy), Example 4; format: in vivo, Mongolian gerbils
From the text: In the middle portion of the CA1 stratum radiatum analyzed in the study, the great majority of synaptic inputs are excitatory and they preferentially terminate on the […], Taking into consideration these aspects, we could focus our analyses on the pool of excitatory CA1 spine synapses.
After perfusion the brains were isolated and separated on two hemispheres.
The hippocampus from another hemisphere of each animal was isolated and cut in 400-μm-thick transverse slices by a chopper (McIlwain tissue chopper, Great Britain). […] Tissue slices were then dehydrated in an ascending series of ethanol followed by dry acetone and embedded in EPON resin according to official protocol. The sections were produced by ultramicrotome LKB-8800. Toluidine blue-stained semi-thin (1 μm) sections of hippocampus were used to localize hippocampal CA1 area. For electron microscopy, ultra-thin sections (70 nm) from the middle portion of CA1 stratum pyramidale and stratum radiatum were stained with uranyl acetate and lead citrate.
The images were taken with JEM-100CX (Jeol, Japan) transmission electron microscope at magnification of ×10 000.
Perforated synapse was defined as a synapse with discontinuous PSD. The synapses with more than one spine contacting the same presynaptic terminal were classified as multiple spine boutons (MSB).
For the analysis of SV's distribution, x- and y-coordinates of SV profile centers and points tracing the active zone of a synapse were marked with UTHSCSA ImageTool software (version 3, University of Texas, San Antonio, Tex.; ftp://maxrad6.uthscsa.edu) on digitized micrographs, using the point tool.
AZD and NND quantities were pooled together per group. […]
Estimations of synapse density were carried out on single photos by counting all asymmetric spine synapses (determined by the presence of a spine head with prominent PSD and docked synaptic vesicles (SV) in the active zone of a presynaptic terminal) on the micrograph surface limited by the counting frame (36 mkm^2 test area) followed by calculation of the number of synapses per surface unit area.

[2] = test system: nestin-positive neurons in hippocampal CA1 area; experiment: Induction of hippocampal neurogenesis (nestin immunohistochemistry), Example 1; format: in vivo, Mongolian gerbils; conditions: old gerbils, 6 month feeding in chow, compared to age matched controls (FIG. 1)
Description: After the course of treatment as specified under Materials and Methods, the animals were sacrificed and the brains were analysed histologically to quantitate hippocampal neurogenesis.
Nestin is a marker for immature neurons. Nestin positive cells were found in the hippocampal layer of the pyramidal neurons. […] In some cells long processes that seem to be dendrites extended into deeper layers of the hippocampus, and these processes were nestin positive as well. In all of the CA fields of the hippocampus (CA1-CA3) these cells were structurally similar to pyramidal cells. The structural similarities between nestin positive cells and neurons allow regarding this type of cells as newly generated neurons.
In Example 1. the animals were fed Labofeed B standard chow (from Labofeed company; Andrzej Morawski Feed Production Plant, Kcynia near. Bydgoszcz, Poland) supplemented with test compounds as specified in table 1.
The lipase, protease and amylase were obtained as capsules containing 30,000 USP units/capsule of lipase, 20,000 USP units/capsule of protease, and 3,000 USP units/capsule of amylase) prepared as shown in Table 2. […]
Samplings for immunohistochemistry (one hemisphere of each animal) were postfixed overnight in the same fixative at +4° C. […] Then slices were washed out, placed on histological slides and mounted with Fluorescence Mounting Media (Dako, Denmark). […]

O=C(O)CCC(=O)C(=O)O [AKG, alpha-ketoglutaric acid]
cognition (percentage of spontaneous alterations in T-maze test) (Mongolian gerbils): improved cognition | number of SVs (synaptic vesicles) per presynaptic terminal ([1]; hippocampal CA1, compared to control old animals (FIG. 6A)): increased | number of synaptic terminals (synaptic contacts) per unit area (100 μm^2), increased to ([1]; hippocampal CA1, old gerbils after long time treatment, old control three times lower than young (FIG. 4)): 55% | distance from a synaptic vesicle to the active zone (AZD) ([1]; hippocampal synapses, old gerbils (FIG. 7)): increase of a distance from a vesicle to the active zone | hippocampal neurogenesis (number of nestin-positive neurons per 1 mm of pyramidal layer length in hippocampal CA1 area) [2]: increased hippocampal neurogenesis; also recorded: increase neurogenesis
